In PubChem BioAssay (NCI):
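Test compounds were applied to cells in 96-well plates for 48 hours at 5 doses. At the GI50, growth is halved. TGI is the concentration that stops growth completely.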

Experiments:
Assay in all cases: NCI anticancer screen, dose series, 48 h
HT29 colon = system: HT29 colon
SNB-19 CNS = system: SNB-19 CNS
OVCAR-8 ovarian = system: OVCAR-8 ovarian
MALME-3M melanoma = system: MALME-3M melanoma
SF-268 CNS = system: SF-268 CNS
SK-MEL-28 melanoma = system: SK-MEL-28 melanoma
RXF 393 renal = system: RXF 393 renal
EKVX NSCLC = system: EKVX NSCLC
PC-3 prostate = system: PC-3 prostate
OVCAR-4 ovarian = system: OVCAR-4 ovarian

Structure (SMILES)	GI50 (HT29 colon)	TGI (HT29 colon)	GI50 (SNB-19 CNS)	TGI (SNB-19 CNS)	GI50 (OVCAR-8 ovarian)	TGI (OVCAR-8 ovarian)	GI50 (MALME-3M melanoma)	TGI (MALME-3M melanoma)	GI50 (SF-268 CNS)	TGI (SF-268 CNS)	GI50 (SK-MEL-28 melanoma)	TGI (SK-MEL-28 melanoma)	GI50 (RXF 393 renal)	TGI (RXF 393 renal)	GI50 (EKVX NSCLC)	TGI (EKVX NSCLC)	GI50 (PC-3 prostate)	TGI (PC-3 prostate)	GI50 (OVCAR-4 ovarian)	TGI (OVCAR-4 ovarian)
NC(=O)c1c(NC(=O)c2ccc(C(F)(F)F)cc2Cl)sc2c1CCC(=O)C2	0.346 µM	1.67 µM	0.375 µM	3.96 µM	0.456 µM	12.2 µM	0.292 µM	1.39 µM	0.456 µM	15.7 µM	0.531 µM	2.04 µM	0.259 µM	0.881 µM	1.62 µM	4.93 µM	0.164 µM	1.3 µM	–	–
O=C1c2c[n+](Cc3ccccc3)ccc2-c2nc3ccccc3c3ccnc1c23	0.971 µM	3.46 µM	0.389 µM	2.55 µM	–	–	0.499 µM	1.02 µM	0.765 µM	3.66 µM	0.954 µM	3.95 µM	0.534 µM	1.56 µM	1.28 µM	4.79 µM	0.826 µM	3.92 µM	0.468 µM	0.92 µM
CC1=C(C(=O)Nc2cc(F)c(F)cc2F)C(c2ccc(N(C)C)cc2)C(C(=O)Nc2cc(F)c(F)cc2F)=C(C)N1	–	> 91.3 µM	–	> 100 µM	–	> 100 µM	–	> 100 µM	–	> 100 µM	–	> 100 µM	–	64.3 µM	–	75.6 µM	13.7 µM	> 100 µM	–	> 79.1 µM
COc1cccc2c1C(=O)c1c(O)c3c(c(O)c1C2=O)C[C@@](O)(C(=O)CO)C[C@@H]3OC1CC2C(OCN2CN2COC3C(C)OC(O[C@H]4C[C@](O)(C(=O)CO)Cc5c(O)c6c(c(O)c54)C(=O)c4c(OC)cccc4C6=O)CC32)C(C)O1 (some centres undefined)	0.00717 µM	0.115 µM	0.00292 µM	0.0256 µM	0.0113 µM	> 1 µM	0.0149 µM	0.0399 µM	0.00258 µM	0.0469 µM	0.016 µM	0.0378 µM	0.000978 µM	0.0101 µM	0.0393 µM	> 1 µM	0.0107 µM	0.0896 µM	0.0222 µM	0.0593 µM
O=C(/C=C/c1cccc(Cl)c1)c1ccccc1	–	–	11.7 µM	25.8 µM	3.32 µM	11.4 µM	14.4 µM	33.7 µM	11.5 µM	26.2 µM	15.9 µM	30.2 µM	12.2 µM	24.8 µM	14.8 µM	29.3 µM	4.13 µM	22.3 µM	13.6 µM	26.8 µM
C[C@H]1CCC/C=C/[C@@H]2C[C@H](O)C[C@H]2[C@H](O)C(O)C(O)C(=O)O1 (some centres undefined)	1.24 µM	17.9 µM	3.35 µM	> 100 µM	1.16 µM	5.11 µM	1.56 µM	5.57 µM	1.19 µM	> 100 µM	1.25 µM	> 100 µM	2.52 µM	> 24.6 µM	4.24 µM	> 100 µM	3.44 µM	> 29.8 µM	–	–
CCn1cnc(C[C@H](NC(=O)[C@@H](NC(=O)Nc2cc(C(F)(F)F)cc(C(F)(F)F)c2)C(C)(C)C)C(=O)OC)c1	> 10 µM	> 10 µM	> 10 µM	> 10 µM	> 10 µM	> 10 µM	> 10 µM	> 10 µM	> 10 µM	> 10 µM	> 10 µM	> 10 µM	> 10 µM	> 10 µM	–	–	> 10 µM	> 10 µM	> 10 µM	> 10 µM
CCOC(=O)CCC(NC(=O)c1ccc(Oc2nc3cc(N)cc(N)c3nc2-c2ccccc2)cc1)C(=O)OCC (centres undefined)	–	–	31.6 µM	> 100 µM	38.2 µM	> 100 µM	18.5 µM	35.2 µM	40.7 µM	> 100 µM	14.3 µM	30.5 µM	43.9 µM	> 100 µM	62 µM	> 100 µM	73.5 µM	> 100 µM	35.6 µM	> 100 µM
O=NN(CC(=O)NNc1ccccc1)CC(=O)NNc1ccccc1	> 100 µM	> 100 µM	> 100 µM	> 100 µM	9.88 µM	> 100 µM	42 µM	> 100 µM	22.1 µM	> 100 µM	–	> 100 µM	> 100 µM	> 100 µM	–	–	5.64 µM	> 100 µM	–	> 100 µM
O=[N+]([O-])c1cc2c(ccc3ccccc32)o1	0.307 µM	1.8 µM	0.966 µM	> 35.4 µM	0.55 µM	5.83 µM	0.175 µM	0.368 µM	0.455 µM	9.73 µM	0.21 µM	0.585 µM	0.311 µM	0.789 µM	–	–	1.85 µM	14.5 µM	1.76 µM	11 µM
O=C1OC(=O)c2c1cc1cc3c(cc1c2-c1ccc2c(c1)OCO2)OCO3	–	> 100 µM	–	> 100 µM	–	> 100 µM	–	> 100 µM	–	> 100 µM	–	> 100 µM	–	> 100 µM	–	–	–	> 100 µM	–	> 100 µM
O=C1/C(=C/c2ccc([N+](=O)[O-])s2)Oc2ccc(Br)cc21	–	–	0.42 µM	2.13 µM	0.37 µM	> 100 µM	0.347 µM	1.6 µM	0.256 µM	0.684 µM	0.302 µM	0.951 µM	0.274 µM	0.813 µM	–	–	0.251 µM	0.774 µM	0.352 µM	1.43 µM
COc1cc2c(cc1OCCCN1CCN(CCCOc3cc4c(cc3OC)C(=O)N3C[C@H](F)C[C@H]3C=N4)CC1)N=C[C@@H]1C[C@@H](F)CN1C2=O	0.148 µM	> 37.2 µM	0.758 µM	> 41.6 µM	0.134 µM	16.2 µM	0.0334 µM	0.154 µM	0.0248 µM	5.94 µM	0.0713 µM	0.343 µM	–	–	0.273 µM	16.3 µM	0.0546 µM	–	0.386 µM	22.6 µM
CC(C)(C)c1ccc(OCCCCCCCN2CCNCC2)cc1	–	–	3.42 µM	12.8 µM	–	–	1.6 µM	3.17 µM	2.36 µM	6.65 µM	–	–	1.69 µM	3.37 µM	3.04 µM	12.7 µM	1.66 µM	3.85 µM	1.6 µM	3.22 µM
